Laboratory results published in paper PMC11056980 (Journal of medicinal chemistry, 2024).
Entries after “also recorded” stand apart in the source; their conditions may differ. Residues, ends and D or L forms follow the SMILES beside them. *: point of attachment. Cbz = O=C(OCc1ccccc1)*

Key:
[1] = target: M^Pro-eGFP fusion protein (Severe acute respiratory syndrome coronavirus 2, UniProt P0DTD1, Q3569G); assay type: cell-based, SARS-CoV-2
[2] = system: recombinant SARS-CoV-2 Δ3678 mGFP containing an NSP5 E166A mutation; conditions: cited from earlier work
[3] = system: SARS-CoV-2 delta variant hCoV-19/USA/MD-HP05647/2021; assay type: cell-based
M^Pro = M^Pro (Severe acute respiratory syndrome coronavirus 2, UniProt P0DTD1); assay type: cell-based, SARS-CoV-2
[4] = system: recombinant SARS-CoV-2 Δ3678 mGFP containing an NSP5 E166A mutation; assay type: cell-based

C[C@@H](OC(C)(C)C)[C@H](NC(=O)OCc1ccccc1)C(=O)N[C@@H](CC1CCCCC1)C(=O)N[C@H](C=O)C[C@@H]1CCNC1=O [MPI8, reference compound]
Effect of pretreatment on MPD2-induced M^Pro degradation (competition) [1]: completely blocked

CC(C)(C)[C@H](NC(=O)C(F)(F)F)C(=O)N1C[C@H]2[C@@H]([C@H]1C(=O)N[C@H](C#N)C[C@@H]1CCNC1=O)C2(C)C [nirmatrelvir]
resistance conferred by NSP5 E166A mutation [2]: 10 fold

C[C@@H](OC(C)(C)C)[C@H](NC(=O)OCc1cccc(OCCCCCCOc2cccc3c2C(=O)N(C2CCC(=O)NC2=O)C3=O)c1)C(=O)N[C@@H](CC1CCCCC1)C(=O)N[C@H](C=O)C[C@@H]1CCNC1=O (some centres unmarked) [MPD2]
antiviral synergy with nirmatrelvir [3]: synergistic effects
M^Pro degradation during SARS-CoV-2 infection (M^Pro): most potent degrader
M^Pro degradation in CRBN knockout vs wildtype CRBN cells [1]: significant rescue of intracellular M^Pro
M^Pro degradation, time course [1]: significant degradation; also recorded: nearly maximal degradation
greater potency against NSP5 E166A mutant virus compared to wild-type Δ3678 mGFP [4]: 5 fold

CC(C)C[C@@H](C=O)NC(=O)[C@H](CC(C)C)NC(=O)[C@H](CC(C)C)NC(=O)OCc1ccccc1 [MG132, reference compound] (Cbz-Leu-Leu-Leu-aldehyde)
Effect of proteasome inhibitor pretreatment on MPD2-induced M^Pro degradation [1]: effectively rescued
